Holding throughout (assay type): in vivo, human
The subject of experiment [1] is subjects with ocular surface disease associated with Primary Sjögren's Syndrome. Put plainly: Corneal fluorescein staining (CFS, NEI scale) in Lacripep clinical study NCT 03226444. On the procedure: (§1) The primary objective of this study was to evaluate the safety and tolerability of 22 and 44 μM Lacripep™ ophthalmic solution versus placebo (vehicle) administered three times daily for 28 days in subjects with a history of ocular surface disease associated with Primary Sjögren's Syndrome, including subjects with mild dry eye symptoms. Additionally, many dry eye signs and symptoms were assessed.
(§2) This was a multi-center, randomized, placebo-controlled, double-masked, parallel-group study conducted at 35 sites in the United States, and approved by local institutional review boards. Written informed consent was obtained from all subjects after review of risks and benefits of participation. The study was conducted in accordance with the Health Insurance Portability and Accountability Act of 1996 and Declaration of Helsinki of 1996 and registered at ClinicalTrials.gov: NCT 03226444.
(§3) The study duration was 56 days, including a 14-day run-in period, a 28-day active treatment period, and 14-day follow-up period (wash-out) (see FIG. 2). Measurements were collected at five scheduled visits.
Screening and Eligibility: At Visit 1 (Screening) informed consent was obtained from subjects and eligibility was determined requiring documentation of Primary Sjögren's Syndrome per the American-European Consensus Group Sjögren's Syndrome Criteria. Subjects were at least 18 years of age with a history of dry eye-related symptoms and use of eye-wetting agents within the past 120 days. Major inclusion criteria at the screening and subsequent baseline visits included: • 1. CFS total score >4 and <15 in the National Eye Institute Industry Workshop (NEI) scale (Protocol Appendix 6) • 2. Symptom Severity score of ≥40 using the Symptom Assessment in Dry Eye (SANDE) questionnaire • 3. Anesthetized Schirmer test score […] • 4. LGCS total score ≥5 using the NEI scale
(§4) Randomization and Treatment: At Visit 2 (Baseline/Randomization) eligibility was confirmed. All criteria were met in the same study eye. […] Eligible subjects were randomly assigned to one of the three treatment groups: one of two Lacripep™ ophthalmic solution strengths (22 μM or 44 μM) or placebo (vehicle).
(§5) One drop of investigational product was administered three times a day (TID) to both eyes for 28 days. At Visit 3 (Week 2) and Visit 4 (Week 4) efficacy and safety evaluations were performed. Subjects who discontinued before Visit 4 underwent Visit 4 evaluations (Early Termination).
(§6) Efficacy: All efficacy assessments were performed in both eyes, and by the same person if possible. […] Lissamine green conjunctival staining (LGCS) was assessed in 6 regions on a 0 to 3 scale (total 0 to 18). All sites were trained and tested on NEI scoring methodology.
The primary efficacy measurement was mean change from Baseline to Day 28 in CFS total score (NEI/Industry Workshop 0-15 scale, 0-3 scale in each of 5 regions) in the study eye. The key secondary efficacy measurement was mean change from Baseline to Day 28 in Eye Dryness Score (VAS from 0 to 100 mm) from Individual Symptom Assessments.
The change from Baseline in CFS to Day 14 and to post treatment follow-up (Day 42) were additional secondary measurements. Other secondary measurements included changes from baseline to Day 14 and Day 28 in the LGCS scores, TFBUT, and Schirmer tests. Secondary symptom measurements included changes from baseline to Day 14 and Day 28 in the SANDE and each of the Individual Symptom Assessments. […]

Experiment [2] shares this test system. The experiment in a line: Burning/Stinging individual symptom assessment (VAS) in Lacripep clinical study. On the procedure: as §1, §2, §3, §4
One drop of investigational product was administered three times a day (TID) to both eyes for 28 days. […]
Tear film break-up time (TBUT) was measured in seconds. The Symptom Assessment in Dry Eye (SANDE) inventory version 1 and version 2 measured patient-rated symptom severity and frequency using a visual-analogue scale. The Individual Symptom Assessments (instantaneous and Reflective) measured patient-reported symptoms on a visual-analogue scale (VAS). […]
Post-Hoc Efficacy Analysis: Post-hoc, all primary and secondary endpoints were assessed for treatment effect controlling for baseline Eye Dryness Score (EDS) using analysis of covariance (ANCOVA). […] Subgroups were then evaluated according to baseline EDS.

Experiment [3] has the same test system. The experiment in a line: Lissamine green conjunctival staining (LGCS, NEI scale) in Lacripep clinical study. As to the method:
as §1, §2, §3, §4, §5, §6
The change from Baseline in CFS to Day 14 and to post treatment follow-up (Day 42) were additional secondary measurements. Other secondary measurements included changes from baseline to Day 14 and Day 28 in the LGCS scores, TFBUT, and Schirmer tests. Secondary symptom measurements included changes from baseline to Day 14 and Day 28 in the SANDE and each of the Individual Symptom Assessments.
Post-Hoc Efficacy Analysis: Post-hoc, all primary and secondary endpoints were assessed for treatment effect controlling for baseline Eye Dryness Score (EDS) using analysis of covariance (ANCOVA). All ANCOVA models were fit using the Proc Mixed procedure in SAS. Post-hoc analysis was also performed using all observed data in the ITT set, without imputation. […] Subgroups were then evaluated according to baseline EDS.

Setting [4] is: 22 μM TID, day 14, prespecified analysis.

“Also recorded” adds a separate entry of the source.

With “Ac-Lys-Gln-Phe-Ile-Glu-Asn-Gly-Ser-Glu-Phe-Ala-Gln-Lys-Leu-Leu-Lys-Lys-Phe-Ser-NH2 (Ac-KQFIENGSEFAQKLLKKFS-NH2) [Lacripep™, synthetic 19 amino acid peptide fragment of lacritin]”, the “Improvement in total CFS score vs placebo” value in experiment [1] (22 μM TID, day 14, baseline EDS set, p=0.03) was 1.2. Moreover, the “Improvement from baseline in inferior region CFS score vs. placebo” value in experiment [1] (setting [4]) is on record as “statistically significant”. The “Treatment effect on inferior CFS after washout” value in experiment [1] (22 μM, day 42 post-treatment follow-up, subset baseline EDS) is “falling off after washout”. For the same substance, the “Difference in inferior region CFS score vs. placebo” value in experiment [1] (44 μM TID (higher dose group), subset baseline EDS≥60) is listed as “Positive (though not statistically significant) differences; also recorded: positive but not significant effect”. For the same substance, in experiment [1] (day 28, change from baseline in CFS total score vs placebo), the “Primary endpoint of CFS score at day 28” value is listed as “not met”. Also, in experiment [2] (setting [4]), the “Improvement from baseline in Burning/Stinging symptom (reflective VAS rating) vs. placebo” value is reported as “statistically significant”. Besides, the “Burning/Stinging symptom vs placebo at later time points” value in experiment [2] (both dose groups (22 and 44 μM), day 28 and day 42, not statistically significant) is “trend better than the placebo group”. Besides, in experiment [2] (both dose groups, day 28, subset baseline EDS of ≥60), the “Burning/Stinging symptom treatment effect” value is “positive but not significant effect”. Also, the “Improvement in change from baseline LGCS total score vs. placebo” value in experiment [3] (22 μM TID, day 14, subset baseline EDS≥60, p=0.017) is recorded as 1.5. In addition, in experiment [3] (22 μM TID, day 14, subset baseline EDS≥60, p=0.038), the “Improvement in LGCS segment 5 vs. placebo” value is recorded as 0.4. Also, the “Improvement in LGCS segment 1 vs. placebo” value in experiment [3] (22 μM TID, day 14, subset baseline EDS≥60, p=0.049) was 0.4. In addition, the “Improvement in LGCS” value in experiment [3] (prespecified secondary endpoint analysis) is reported as “not statistically significant”.

The values are drawn from patent US20260021159A1, “STABLE PEPTIDE COMPOSITIONS AND METHODS OF USE THEREOF FOR TREATMENT OF MODERATE/SEVERE DRY EYE-RELATED OCULAR SYMPTOMS” (TearSolutions, Inc., priority 2022, published 2026).
